Data taken from US20260265246A1 (ICAHN SCHOOL OF MEDICINE AT MOUNT SINAI, priority 2021, published 2026).
Read-outs that look alike come from different tables or passages of the source.

Assays:
[1] = biological target: T1, 5HT2A receptor (Homo sapiens, UniProt P28223); experiment: biochemical; assay type: binding; design: expressed in transfected cells; crude membranes
[2] = biological target: T1, 5HT2A receptor; experiment: cell-based; design: expressed in transfected cells; host or cells: HEK293T cells, transient co-transfection; conditions: for Emax: HEK-293T
[3] = biological target: T1, 5HT2A receptor; experiment: cell-based; design: expressed in transfected cells; host or cells: HEK293T cells, transient co-transfection; conditions: for Emax: HEK-293T; remark: listed apart in the source
[4] = 5HT2A Ki (nM), secondary binding assay, Cheng-Prusoff
[5] = 5HTA Gq EC50 (nM), BRET2 Gαq dissociation, HEK293T
[6] = read-out: 5HTA Gq Emax (%), BRET2 Gαq dissociation, HEK293T, normalized to 5-HT
[7] = 5HT2A β-Arr EC50 (nM), BRET1 beta-arrestin2 recruitment, HEK293T
[8] = read-out: 5HT2A β-Arr Emax (%), BRET1 beta-arrestin2 recruitment, HEK293T, normalized to 5-HT
[9] = BRET2 Gαq dissociation, HEK293T, normalized to 5-HT, read-out: 5HTA Gq Emax (%)
[10] = BRET1 beta-arrestin2 recruitment, HEK293T, normalized to 5-HT, read-out: 5HT2A β-Arr Emax (%)
[11] = BRET2 Gαq dissociation, HEK293T, read-out: 5HTA Gq EC50
[12] = secondary radioligand binding, Ki from IC50 by Cheng-Prusoff, read-out: 5HT2A Ki
[13] = BRET2 Gαq dissociation, HEK293T cells, read-out: 5HT2A Gq EC50
[14] = BRET2 Gαq dissociation, HEK293T cells, normalized to 5-HT, read-out: 5HT2A Gq Emax (%)
[15] = BRET1 beta-arrestin2 recruitment, HEK293T cells, read-out: 5HT2A β-Arr EC50
[16] = BRET1 beta-arrestin2 recruitment, HEK293T cells, normalized to 5-HT, read-out: 5HT2A β-Arr Emax (%)
[17] = 5HT2A Ki (nM), secondary radioligand binding, Ki from IC50 by Cheng-Prusoff
[18] = 5HT2A Gq EC50 (nM), BRET2 Gαq dissociation, HEK293T cells
[19] = 5HT2A β-Arr EC50 (nM), BRET1 beta-arrestin2 recruitment, HEK293T cells
[20] = secondary binding assay, Cheng-Prusoff, read-out: 5HT2A Ki
[21] = BRET1 beta-arrestin2 recruitment, HEK293T, read-out: 5HT2A β-Arr EC50

T1 sequence (P28223 whole entry): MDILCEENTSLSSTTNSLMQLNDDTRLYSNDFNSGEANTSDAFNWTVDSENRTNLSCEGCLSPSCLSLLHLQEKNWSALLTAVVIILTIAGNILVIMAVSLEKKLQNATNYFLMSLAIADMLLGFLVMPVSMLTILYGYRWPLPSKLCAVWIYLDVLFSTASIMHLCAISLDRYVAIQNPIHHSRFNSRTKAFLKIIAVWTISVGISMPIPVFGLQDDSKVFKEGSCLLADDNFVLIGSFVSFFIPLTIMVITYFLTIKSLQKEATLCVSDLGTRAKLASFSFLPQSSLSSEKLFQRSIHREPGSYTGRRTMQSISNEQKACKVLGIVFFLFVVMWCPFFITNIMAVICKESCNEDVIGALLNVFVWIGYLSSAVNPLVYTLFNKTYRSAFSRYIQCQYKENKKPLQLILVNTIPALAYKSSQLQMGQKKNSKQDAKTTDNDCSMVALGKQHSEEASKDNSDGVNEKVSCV

Compound | Ki [1, 4] | EC50 [2, 5] | EC50 [3, 7] | Emax [2, 9] | Emax [3, 10] | EC50 [2, 13] | Emax [2, 14] | Emax [3, 16] | Ki [1, 17] | EC50 [3, 19] | further results
CC#CCN1CCC=C(c2n[nH]c3c(Cl)cccc23)C1 [Example 149, 3-(1-(but-2-yn-1-yl)-1,2,5,6-tetrahydropyridin-3-yl)-7-chloro-1H-indazole] | 364 nM | 10.1 nM | 113 nM | – | – | – | – | – | – | – | Emax [2, 6]: 49.8%; Emax [3, 8]: 24.2%
Fc1cccc2c(C34CCNCC3C4)n[nH]c12 (stereo not shown) [Example 229, 3-(3-azabicyclo[4.1.0]heptan-6-yl)-7-fluoro-1H-indazole] | 1900 nM | 236 nM | 2070 nM | 83.7% | 90.2% | – | – | – | – | – | –
CCCN1CCC=C(c2c[nH]c3c(C)cc(F)cc23)C1 [Example 161, 5-fluoro-7-methyl-3-(1-propyl-1,2,5,6-tetrahydropyridin-3-yl)-1H-indole] | 488 nM | – | 311 nM | 93.2% | 35.2% | – | – | – | – | – | EC50 [2, 11]: 84.1 nM
CC(C)N1CC=C(c2n[nH]c3c(Cl)cccc23)C1 [Example 219, 7-chloro-3-(1-isopropyl-2,5-dihydro-1H-pyrrol-3-yl)-1H-indazole] | 313 nM | – | 537 nM | 55.5% | 71.9% | – | – | – | – | – | EC50 [2, 11]: 25.5 nM
Fc1ccc2c(C3=CCCNC3)n[nH]c2c1 [Example 78, 6-fluoro-3-(1,2,5,6-tetrahydropyridin-3-yl)-1H-indazole] | – | – | – | – | – | 11.5 nM | 79.4% | 59.4% | – | – | Ki [1, 12]: 57.6 nM; EC50 [3, 15]: 115 nM
Clc1[nH]c2ccccc2c1C1=CCCNC1 [Example 64, 2-chloro-3-(1,2,5,6-tetrahydropyridin-3-yl)-1H-indole] | – | – | – | – | – | – | 91.8% | 60.2% | 186 nM | 219 nM | EC50 [2, 18]: 61.9 nM
Cc1cccc2c(C3=CCCN(C)C3)n[nH]c12 [Example 105, 7-methyl-3-(1-methyl-1,2,5,6-tetrahydropyridin-3-yl)-1H-indazole] | – | – | – | – | – | 35.4 nM | 75.4% | 45.7% | 1340 nM | 432 nM | –
Cc1cc(F)cc2c(C34CNCC3C4)c[nH]c12 (stereo not shown) [Example 282, 3-(3-azabicyclo[3.1.0]hexan-1-yl)-5-fluoro-7-methyl-1H-indole] | 257 nM | 165 nM | 1280 nM | – | – | – | – | – | – | – | Emax [2, 6]: 96.8%; Emax [3, 8]: 44.8%
Fc1ccc2c(C34CNCC3C4)c[nH]c2c1Cl (stereo not shown) [Example 280, 3-(3-azabicyclo[3.1.0]hexan-1-yl)-7-chloro-6-fluoro-1H-indole] | 63.8 nM | 38.1 nM | 256 nM | – | – | – | – | – | – | – | Emax [2, 6]: 81.6%; Emax [3, 8]: 55.6%
COc1cccc2[nH]nc(C3=CCCNC3)c12 [Example 83, 4-methoxy-3-(1,2,5,6-tetrahydropyridin-3-yl)-1H-indazole] | – | – | – | – | – | 12.5 nM | 81.7% | 75.9% | – | – | Ki [1, 12]: 78.8 nM; EC50 [3, 15]: 109 nM
Clc1ccc2c(C3=CCCNC3)c[nH]c2c1 [Example 31, 6-chloro-3-(1,2,5,6-tetrahydropyridin-3-yl)-1H-indole] | – | – | – | – | – | – | 93% | 112% | 160 nM | 1500 nM | EC50 [2, 18]: 106 nM
COC1(c2c[nH]c3c(Cl)cccc23)CNC1 [Example 254, 7-chloro-3-(3-methoxyazetidin-3-yl)-1H-indole] | 1080 nM | 294 nM | 1460 nM | 88.3% | 77.6% | – | – | – | – | – | –
Fc1cc(Cl)c2[nH]nc(N3CCNCC3)c2c1 [Example 232, 7-chloro-5-fluoro-3-(piperazin-1-yl)-1H-indazole] | 1540 nM | 170 nM | 1970 nM | 48.4% | 29% | – | – | – | – | – | –
CCc1[nH]c2ccccc2c1C1=CCCNC1 [Example 62, 2-ethyl-3-(1,2,5,6-tetrahydropyridin-3-yl)-1H-indole] | – | – | – | – | – | 75.7 nM | 49.1% | 45.1% | 810 nM | 633 nM | –
Fc1cccc2c(C3=CCCNC3)n[nH]c12 [Example 90, 7-fluoro-3-(1,2,5,6-tetrahydropyridin-3-yl)-1H-indazole] | – | – | – | – | – | 9.2 nM | 95.6% | 70% | 1390 nM | – | EC50 [3, 15]: 86 nM
Fc1ccc(Cl)c2[nH]nc(C3=CCCNC3)c12 [Example 131, 7-chloro-4-fluoro-3-(1,2,5,6-tetrahydropyridin-3-yl)-1H-indazole] | – | – | – | 106% | 72.7% | – | – | – | – | – | Ki [1, 20]: 47.5 nM; EC50 [2, 11]: 7.2 nM; EC50 [3, 21]: 17.4 nM
CN1CCC=C(c2c[nH]c3ncc(Cl)cc23)C1 [Example 7, 5-chloro-3-(1-methyl-1,2,5,6-tetrahydropyridin-3-yl)-1H-pyrrolo[2,3-b]pyridine] | – | – | – | – | – | – | 73.4% | 20.7% | 209 nM | 18.7 nM | EC50 [2, 18]: 56.9 nM
Cc1cccc2[nH]cc(C3=CCCN(C)C3)c12 [Example 19, 4-methyl-3-(1-methyl-1,2,5,6-tetrahydropyridin-3-yl)-1H-indole] | – | – | – | – | – | 9 nM | 75.9% | 40.4% | 136 nM | 102 nM | –
Fc1cc(Cl)c2[nH]nc(C3=CCCNC3)c2c1 [Example 129, 7-chloro-5-fluoro-3-(1,2,5,6-tetrahydropyridin-3-yl)-1H-indazole] | 162 nM | – | – | 88.8% | 95% | – | – | – | – | – | EC50 [2, 11]: 3.1 nM; EC50 [3, 21]: 20.1 nM
C#CCN1CCC=C(c2n[nH]c3c(Cl)cccc23)C1 [Example 125, 7-chloro-3-(1-(prop-2-yn-1-yl)-1,2,5,6-tetrahydropyridin-3-yl)-1H-indazole] | – | – | – | – | – | 75 nM | 93.5% | 63.3% | 1970 nM | 291 nM | –
CN1CC(c2c[nH]c3c(Cl)cccc23)C1 [Example 256, 7-chloro-3-(1-methylazetidin-3-yl)-1H-indole] | 2010 nM | 367 nM | 1000 nM | 97.5% | 31.7% | – | – | – | – | – | –
CN1CCC=C(c2n[nH]c3cccc(F)c23)C1 [Example 98, 4-fluoro-3-(1-methyl-1,2,5,6-tetrahydropyridin-3-yl)-1H-indazole] | – | – | – | – | – | – | 58.5% | 54% | 835 nM | 483 nM | EC50 [2, 18]: 105 nM
Fc1cc(Cl)c2[nH]cc(C34CNCC3C4)c2c1 (stereo not shown) [Example 279, 3-(3-azabicyclo[3.1.0]hexan-1-yl)-7-chloro-5-fluoro-1H-indole] | 75.2 nM | 110 nM | 380 nM | – | – | – | – | – | – | – | Emax [2, 6]: 98.6%; Emax [3, 8]: 60.9%
CCCN1CCC=C(c2n[nH]c3c(CC)cccc23)C1 [Example 237, 7-ethyl-3-(1-propyl-1,2,5,6-tetrahydropyridin-3-yl)-1H-indazole] | 389 nM | – | 1580 nM | 37.7% | 39.8% | – | – | – | – | – | EC50 [2, 11]: 33.6 nM
CN1CCC=C(c2n[nH]c3cccc(C#N)c23)C1 [Example 99, 3-(1-methyl-1,2,5,6-tetrahydropyridin-3-yl)-1H-indazole-4-carbonitrile] | – | – | – | – | – | 96.4 nM | 80% | 43.8% | 491 nM | 1010 nM | –
Cc1cccc2c(N3CCNCC3)n[nH]c12 [Example 230, 7-methyl-3-(piperazin-1-yl)-1H-indazole] | 715 nM | 248 nM | 917 nM | 66.1% | 45.3% | – | – | – | – | – | –
Cc1cccc2[nH]nc(C3=CCCNC3)c12 [Example 80, 4-methyl-3-(1,2,5,6-tetrahydropyridin-3-yl)-1H-indazole] | – | – | – | – | – | 73.8 nM | 83.4% | 71.8% | 254 nM | 698 nM | –
Cc1cccc2c(C34CCNCC3C4)n[nH]c12 (stereo not shown) [Example 226, 3-(3-azabicyclo[4.1.0]heptan-6-yl)-7-methyl-1H-indazole] | 4630 nM | 1350 nM | 2000 nM | 91% | 52.1% | – | – | – | – | – | –
CN1CC=C(c2c[nH]c3c(Cl)cccc23)C1 [Example 210, 7-chloro-3-(1-methyl-2,5-dihydro-1H-pyrrol-3-yl)-1H-indole] | – | – | 119 nM | 74.9% | 33.6% | – | – | – | – | – | Ki [1, 20]: 86.1 nM; EC50 [2, 11]: 33.1 nM
